Data as given in patent publication US11440914B2, “Tricyclic amine compounds as CDK2 inhibitors” (Incyte Corporation, priority 2019, dated 2022).

What was measured:
[1] = system: Rb phosphorylation at S780 in CCNE1-amplified cell lines (OVCAR3 and COV318); experiment: Western blot of Rb phosphorylation at S780 in CCNE1-amplified cell lines; assay type: cell-based, human; details: various doses, 1 or 15 hours
Procedure: (§1) The effect of CDK4/6-inhibition on Rb phosphorylation at S780 in CCNE1-amplified versus CCNE1-non-amplified cell lines was evaluated. […] One or 15 hours after treatment, the cells were harvested and total protein was extracted and analyzed by western blot (FIG. 8).
(§2) Whole cell extracts were prepared using RIPA buffer (Thermo Scientific, 89900) with a Halt Protease and Phosphatase Inhibitor Cocktail (Thermo Scientific, 78440). Protein concentration was quantified with a BCA Protein Assay Kit (Thermo Scientific, 23225) and […] of protein lysates were loaded for SDS-PAGE using precast gradient gels (Bio-Rad, Hercules, No. 456-1094). Samples were diluted in 5× Laemmli buffer (300 mM Tris-HCl pH 6.8, 10% SDS (w/v), 5% 2-mercaptoethanol, 25% glycerol (v/v), 0.1% bromophenol blue w/v) and boiled for 5 minutes. […] of proteins were separated by 8-15% SDS-PAGE and transferred onto polyvinylidene fluoride (PVDF) membranes. Unspecific binding sites on the PVDF membranes were blocked with 5% non-fat milk in TBST (20 mM Tris-HCl, pH 7.6, 137 mM NaCl, 1% Tween-20). […] Images were captured by Luminescence/Fluorescence Imaging System Odyssey CLx Imager (LI-COR).

[2] = system: CCNE1-non-amplified cell lines (COV504, OV56, Igrov1); experiment: Cell cycle analysis by FACS in CCNE1-non-amplified cell lines; assay type: cell-based, human
Procedure: (§3) The effect of CDK4/6-inhibition in CCNE1-amplified versus CCNE1-non-amplified cell lines was evaluated.
(§4) A similar experiment was performed in a larger set of CCNE1-amplified cell lines (COV318 and OVCAR3) and CCNE1-non-amplified cell lines (COV504, OV56, and Igrov1) (FIG. 6).
(§5) Bulk DNA was stained with DAPI. Compound-treated and DMSO treated control cells were acquired with CytoFlex (Beckman Coulter) and were analyzed using the FlowJo software. For cell cycle analysis of cells with siRNA knockdown, 72 hours after siRNA transfection, cells exposed to […] for 3 hours before detection of Click-iT Alexa Fluor® 647 azide kit.

[3] = system: CCNE1-amplified cell lines (OVCAR3, COV318); experiment: Cell cycle analysis by FACS in CCNE1-amplified cell lines; assay type: cell-based, human; details: for percentage of S phase cells: 100 nM, 16 hours
Procedure: as §3, §4
To confirm the role of p16 in CDK2-sensitivity of CCNE-amplified cells, COV318 cells were treated with control or p16-specific siRNA.
as §5

[4] = system: Rb phosphorylation at S780 in CCNE1-non-amplified cell lines (COV504 and OV56); experiment: Western blot of Rb phosphorylation at S780 in CCNE1-non-amplified cell lines; assay type: cell-based, human; details: various doses, 1 or 15 hours
Procedure: as §1, §2

[5] = system: Rb phosphorylated on serine 780 in CCNE1 amplified COV318 cells; experiment: CDK2 pRb (S780) HTRF cellular assay; assay type: cell-based; details: Homo sapiens, overnight treatment, read-out: IC50 in p-RB S780 HTRF cellular assay
Procedure: CDK2 pRb ([…]) HTRF cellular assay enables the quantitative detection of Rb phosphorylated on […] in CCNE1 amplified COV318 cells. The assay comprised two antibodies: Europium cryptate labeled anti-Phospho-Rb […] antibody (donor) and d2 labeled anti-Rb antibody (acceptor). In brief, COV318 cells were seeded into the wells of 96-well plate at a density of 25,000 per well with 9-point, 3-fold serial diluted compounds and cultured overnight at 37 degree with 5% CO2. The final concentrations of compounds start from 3 μM. […] After 2 h of incubation at room temperature, HTRF signals were measured on the PHERAstar microplate reader (BMG Labtech), using 340 nm as excitation wavelength, a 620 nm filter for the Europium donor fluorescence, and a 665-nm filter for the acceptor fluorescence detection. HTRF signals were calculated as the HTRF ratio (ratio of fluorescence measured at 665 nm and 620 nm)×10000.

[6] = target: CDK2/Cyclin E1 (Homo sapiens (Human), UniProt P24941); experiment: CDK2/Cyclin E1 HTRF enzyme activity assay; assay type: biochemical; details: 1 mM ATP
Procedure: CDK2/Cyclin E1 enzyme activity assays utilize full-length human CDK2 co-expressed as N-terminal GST-tagged protein with FLAG-Cyclin E1 in a baculovirus expression system (Carna Product Number 04-165). Assays are conducted in white 384-well polystyrene plates in a final reaction volume of 8 μL. CDK2/Cyclin E1 (0.25 nM) is incubated with compounds (40 nL serially diluted in DMSO) in the presence of ATP (50 μM or 1 mM) and 50 nM ULight™-labeled eIF4E-binding protein 1 (THR37/46) peptide (PerkinElmer) in assay buffer (containing 50 mM HEPES pH 7.5, 1 mM EGTA, 10 mM MgCl2, 2 mM DTT, 0.05 mg/ml BSA, and 0.01% Tween 20) for 60 minutes at room temperature. The reactions are stopped by the addition of EDTA and Europium-labeled anti-phospho-4E-BP1 antibody (PerkinElmer), for a final concentration of 15 mM and 1.5 nM, respectively. HTRF signals are read after 1 hour at room temperature on a PHERAstar FS plate reader (BMG Labtech). Data is analyzed with IDBS XLFit and GraphPad Prism 5.0 software using a three or four parameter dose response curve to determine IC50 for each compound.

Structure (SMILES) | Rb phosphorylation at S780 [1] | percentage of cells at the S phase as compared to DMSO ([2]; COV504, OV56, Igrov1, 16 hours after treatment) | proliferation (cell cycle analysis by FACS) ([2]; COV504 cells, 16 hours, increasing concentrations) | percentage of cells at the S phase as compared to DMSO ([3]; COV318 and OVCAR3, 16 hours after treatment) | Rb phosphorylation at S780 [4] | IC50 [5] | percentage of S phase cells ([3]; COV318, control siRNA) | percentage of S phase cells ([3]; COV318, p16 knocked down by siRNA, vs DMSO) | IC50 [6]
CC(=O)c1c(C)c2cnc(Nc3ccc(N4CCNCC4)cn3)nc2n(C2CCCC2)c1=O [palbociclib] | not in CCNE1-amplified cell lines | decreased in CCNE1-non-amplified cell lines in a dose-dependent fashion | dose-dependent inhibition of the proliferation | not significantly different | blocked Rb phosphorylation | > 3000 nM |  |  | 
C[C@@]1(O)CCC[C@H]1n1c(=O)ccc2cnc(NC3CCN(S(C)(=O)=O)CC3)nc21 [Compound A, 8-((1R,2R)-2-hydroxy-2-methylcyclopentyl)-2-((1-(methylsulfonyl)piperidin-4-yl)amino)pyrido[2,3-d]pyrimidin-7(8H)-one] |  |  |  |  |  | 37 nM | significantly decreased | not significantly decreased | 
Cc1nc2c(n1C)-c1nc(NC3CCN(S(=O)(=O)C4CC4)CC3)ncc1CC2 [Example 2, N-(1-(Cyclopropylsulfonyl)piperidin-4-yl)-1,2-dimethyl-4,5-dihydro-1H-imidazo[4,5-h]quinazolin-8-amine] |  |  |  |  |  |  |  |  | ≤ 50 nM
